# Legend:
# [1] = tested on: PANK2 silenced cells (IMR32 Human Neuroblastoma Cells); assay: Neuroblastoma cell assay: CoASH by LC-MS/MS in PANK2 silenced cells; format: cell-based; details: 50 μM, treatment repeated after 24 hours, further 24 hours; free CoASH by LC-MS/MS
# Procedure: The compounds described herein may be tested in PANK2 silenced cells (IMR32 Human Neuroblastoma Cells). The amount of CoASH following administration of the compounds is measured by LC-MS/MS.
# Human neuroblastoma IMR32 cells (ATCC) were cultured in MEM (Invitrogen) supplemented with 10% fetal bovine serum, 2 mM glutamine, 1% penicillin-streptomycin, 1 mM sodium pyruvate, 1 mM non essential aminoacids and 1.5 g/l sodium bicarbonate.
# Human Emryonic Kidney HEK-293T cells (ATCC) were cultured in DMEM supplemented with 10% fetal bovine serum, 1 mM glutamine, 1% penicillin-streptomycin.
# The cells were maintained at 37° C. under 5% CO2.
# Establishment of a PANK2−/− Cell Model
# For lentiviral shRNA expression, Human Emryonic Kidney HEK-293T cells (ATCC) were transfected with the appropriate pGFP-Lenti-shRNA constructs and packaging plasmids according to manufacturer's protocol (Origene Technologies, Inc.). 4 different gene-specific shRNA expression vectors designed against multiple splice variants of PANK2 (Gene ID 80025) were used for transfection. A non-silencing shRNA construct (scrambled shRNA) and an empty vector expressing GFP alone were used as negative controls. The GFP tag subcloned into the lentiviral vectors was used to monitor the transfection efficiency.
# IMR32 cells were plated on […] dishes 48 hrs before transduction with lentiviral particles.
# Three days after transduction medium was removed and replaced with fresh medium containing […] puromycin. Medium was replaced every 48 hrs. Levels of PANK2 expression on selected clones was assessed by Western Blot analysis.
# Cell-Based Assay on PANK2−/− Cells
# Cells were plated on 6-well culture plates. After 72 hours, compounds were diluted in DMSO and added to the culture medium such that the final solvent concentration was 0.1% (v/v). […] Before analysis of Coenzyme A levels, cells were harvested, counted and collected in a 15 ml falcon tube and centrifuged at 200×g for 5 min at 4° C. […]
# Results are expressed as fold increase in CoA levels (LCMS quantification of free CoASH as described in above).
# Pank1−/− mice = assay: In vivo testing: liver Coenzyme A levels in Pank1−/− mice; set-up: species or system mouse; details: liver CoA in treated Pank1−/− mice as percentage of untreated Pank1−/− mice; intraperitoneal 1.2 μmoles/g body weight once daily for 5 days, fasted overnight
# Procedure: Compounds of the invention were tested for efficacy in Pank1^−/− mice (strain 129SvJ×C57BL/6J background), which were compared with age-matched Pank1^+/+ (strain 129SvJ×C57BL/6J) littermates, ages 8-12 weeks. Each mouse was identified with a coded ear tag and weighed on the first day of testing. Each compound was administered to 4-5 mice by intraperitoneal injection at a dose of 1.2 μmoles/g body weight in 5 μL dimethylsulfoxide once daily for 5 days, and mice were then fasted overnight, weighed, and euthanized. Untreated mice received 5 μL dimethylsulfoxide once daily for 5 days and then were fasted overnight prior to weighing and euthanasia. Livers were excised from each mouse, aliquots were snap-frozen in liquid nitrogen, and stored at −80° C. Within 7 days, liver samples were thawed on ice, weighed, and analyzed for Coenzyme A content as described below. Efficacy was indicated by a statistically significant increase in the liver Coenzyme A levels in the Pank1^−/− mice as compared to the liver from untreated Pank1^−/− mice and by equivalence in comparison with Coenzyme A levels in untreated Pank1^+/+ mice.
# CoA Measurements: Extraction of Fibroblasts and Liver and Derivatization of Coenzyme A Prior to High Pressure Liquid Chromatography (HPLC) […]
# Coenzyme A Quantification by HPLC […]
smiles,measurement,setting,value
"COC(=O)CCNC(=O)[C@H](O)C(C)(C)COP(=O)(N[C@@H](Cc1ccccc1)C(=O)OCc1ccccc1)Oc1ccccc1 (stereo partly drawn) [Compound 27, Benzyl (((R)-3-hydroxy-4-((3-methoxy-3-oxopropyl)amino)-2,2-dimethyl-4-oxobutoxy)(phenoxy)phosphoryl)-L-phenylalaninate]",CoA levels (fold over vehicle treated PANK2−/− cells),[1],1.3 fold
same,CoA (% KO),Pank1−/− mice,1837 % KO
"COC(=O)[C@H](C)NP(=O)(OCC(C)(C)[C@@H](O)C(=O)NCCC(=O)OCc1ccccc1)Oc1ccccc1 (stereo partly drawn) [Compound 22, Benzyl 3-((2R)-2-hydroxy-4-(((((S)-1-methoxy-1-oxopropan-2-yl)amino)(phenoxy)phosphoryl)oxy)-3,3-dimethylbutanamido)propanoate]",CoA levels (fold over vehicle treated PANK2−/− cells),[1],1.1 fold
same,CoA (% KO),Pank1−/− mice,400 % KO
"COC(=O)CCNC(=O)[C@H](O)C(C)(C)COP(=O)(N[C@@H](C)C(=O)OCc1ccccc1)Oc1ccccc1 (stereo partly drawn) [Compound 24, Benzyl (((R)-3-hydroxy-4-((3-methoxy-3-oxopropyl)amino)-2,2-dimethyl-4-oxobutoxy)(phenoxy)phosphoryl)-L-alaninate]",CoA levels (fold over vehicle treated PANK2−/− cells),[1],1.7 fold
